Measurements reported in patent US20110263822A1, “COMPOSITION FOR THE PROPHYLAXIS AND TREATMENT OF HBV INFECTIONS AND HBV-MEDIATED DISEASES” (Rhein Biotech Gesellschaft Fur Neue Biotechnologische …, priority 2003, published 2011).
pIC50: −log10 of the molar value. Ends that are not written are not given here.

Biological target: MHC class I molecules K^b (Mus musculus, UniProt P01901)
Experiment: biochemical
Conditions: 48 hours at 18° C.; read-out: K^b-binding

MHC class I molecules K^b, sequence (P01901 whole entry, looked up): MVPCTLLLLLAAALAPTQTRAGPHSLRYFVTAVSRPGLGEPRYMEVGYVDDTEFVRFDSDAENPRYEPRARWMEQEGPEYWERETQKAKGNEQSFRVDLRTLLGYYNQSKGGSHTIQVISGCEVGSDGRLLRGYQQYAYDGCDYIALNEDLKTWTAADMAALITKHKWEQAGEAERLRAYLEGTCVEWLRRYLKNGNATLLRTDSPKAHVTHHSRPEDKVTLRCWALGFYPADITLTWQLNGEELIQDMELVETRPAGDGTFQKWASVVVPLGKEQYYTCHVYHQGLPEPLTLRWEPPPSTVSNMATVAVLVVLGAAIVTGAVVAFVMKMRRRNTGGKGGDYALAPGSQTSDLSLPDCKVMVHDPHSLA

With IVSPFIPL [IVSPFIPL] the pIC50 was 6.11.
